Test results as given in patent US20220347175A1, “PYRIDAZINONE DERIVATIVE” (Sumitomo Dainippon Pharma Co., Ltd., priority 2018, published 2022).

Legend:
human Nav1.1 = molecular target: T1, human Nav1.1 (Homo sapiens, UniProt P35498); test: Amplification of Nav1.1-derived voltage-dependent sodium current (Nav1.1 current), cell line stably expressing human Nav1.1, automated patch clamp; assay type: cell-based
T1 construct: host or cells: HEK293
Procedure, shortened: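 Amplification rate (%) is 100 × post-compound/pre-compound Nav1.1 peak current or AUC, minus 100. Ramp-evoked sodium currents were recorded by automated patch clamp in a human Nav1.1 HEK293 stable line, restricted to cells exceeding 500 pA, with compounds added in extracellular solution containing 1% DMSO.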

human Nav1.5 = molecular target: T2, human Nav1.5 (Homo sapiens, UniProt Q14524); test: Amplification of Nav1.5-derived voltage-dependent sodium current (Nav1.5 current), cell line stably expressing human Nav1.5, automated patch clamp; assay type: cell-based
T2 construct: expressed in transfected cells; host or cells: CHO-K1 (T-REx System, ThermoFisher Scientific)

[1] = 10 μmol/L compound, change of the area under the curve of Nav1.1 current (Test Result 1)
[2] = 10 μmol/L compound, change of the area under the curve of Nav1.5 current (Test Result 1)
[3] = compound 3 μmol/L, HEK293 stably expressing human Nav1.1
[4] = compound 3 μmol/L, CHO-K1 stably expressing human Nav1.5
[5] = compound 1 μmol/L, HEK293 stably expressing human Nav1.1, read-out: Nav1.1 current amplification rate (%)
[6] = compound 1 μmol/L, CHO-K1 stably expressing human Nav1.5, read-out: Nav1.5 current amplification rate (%)

T2 sequence (Q14524 1-2015 isoform Q14524-2): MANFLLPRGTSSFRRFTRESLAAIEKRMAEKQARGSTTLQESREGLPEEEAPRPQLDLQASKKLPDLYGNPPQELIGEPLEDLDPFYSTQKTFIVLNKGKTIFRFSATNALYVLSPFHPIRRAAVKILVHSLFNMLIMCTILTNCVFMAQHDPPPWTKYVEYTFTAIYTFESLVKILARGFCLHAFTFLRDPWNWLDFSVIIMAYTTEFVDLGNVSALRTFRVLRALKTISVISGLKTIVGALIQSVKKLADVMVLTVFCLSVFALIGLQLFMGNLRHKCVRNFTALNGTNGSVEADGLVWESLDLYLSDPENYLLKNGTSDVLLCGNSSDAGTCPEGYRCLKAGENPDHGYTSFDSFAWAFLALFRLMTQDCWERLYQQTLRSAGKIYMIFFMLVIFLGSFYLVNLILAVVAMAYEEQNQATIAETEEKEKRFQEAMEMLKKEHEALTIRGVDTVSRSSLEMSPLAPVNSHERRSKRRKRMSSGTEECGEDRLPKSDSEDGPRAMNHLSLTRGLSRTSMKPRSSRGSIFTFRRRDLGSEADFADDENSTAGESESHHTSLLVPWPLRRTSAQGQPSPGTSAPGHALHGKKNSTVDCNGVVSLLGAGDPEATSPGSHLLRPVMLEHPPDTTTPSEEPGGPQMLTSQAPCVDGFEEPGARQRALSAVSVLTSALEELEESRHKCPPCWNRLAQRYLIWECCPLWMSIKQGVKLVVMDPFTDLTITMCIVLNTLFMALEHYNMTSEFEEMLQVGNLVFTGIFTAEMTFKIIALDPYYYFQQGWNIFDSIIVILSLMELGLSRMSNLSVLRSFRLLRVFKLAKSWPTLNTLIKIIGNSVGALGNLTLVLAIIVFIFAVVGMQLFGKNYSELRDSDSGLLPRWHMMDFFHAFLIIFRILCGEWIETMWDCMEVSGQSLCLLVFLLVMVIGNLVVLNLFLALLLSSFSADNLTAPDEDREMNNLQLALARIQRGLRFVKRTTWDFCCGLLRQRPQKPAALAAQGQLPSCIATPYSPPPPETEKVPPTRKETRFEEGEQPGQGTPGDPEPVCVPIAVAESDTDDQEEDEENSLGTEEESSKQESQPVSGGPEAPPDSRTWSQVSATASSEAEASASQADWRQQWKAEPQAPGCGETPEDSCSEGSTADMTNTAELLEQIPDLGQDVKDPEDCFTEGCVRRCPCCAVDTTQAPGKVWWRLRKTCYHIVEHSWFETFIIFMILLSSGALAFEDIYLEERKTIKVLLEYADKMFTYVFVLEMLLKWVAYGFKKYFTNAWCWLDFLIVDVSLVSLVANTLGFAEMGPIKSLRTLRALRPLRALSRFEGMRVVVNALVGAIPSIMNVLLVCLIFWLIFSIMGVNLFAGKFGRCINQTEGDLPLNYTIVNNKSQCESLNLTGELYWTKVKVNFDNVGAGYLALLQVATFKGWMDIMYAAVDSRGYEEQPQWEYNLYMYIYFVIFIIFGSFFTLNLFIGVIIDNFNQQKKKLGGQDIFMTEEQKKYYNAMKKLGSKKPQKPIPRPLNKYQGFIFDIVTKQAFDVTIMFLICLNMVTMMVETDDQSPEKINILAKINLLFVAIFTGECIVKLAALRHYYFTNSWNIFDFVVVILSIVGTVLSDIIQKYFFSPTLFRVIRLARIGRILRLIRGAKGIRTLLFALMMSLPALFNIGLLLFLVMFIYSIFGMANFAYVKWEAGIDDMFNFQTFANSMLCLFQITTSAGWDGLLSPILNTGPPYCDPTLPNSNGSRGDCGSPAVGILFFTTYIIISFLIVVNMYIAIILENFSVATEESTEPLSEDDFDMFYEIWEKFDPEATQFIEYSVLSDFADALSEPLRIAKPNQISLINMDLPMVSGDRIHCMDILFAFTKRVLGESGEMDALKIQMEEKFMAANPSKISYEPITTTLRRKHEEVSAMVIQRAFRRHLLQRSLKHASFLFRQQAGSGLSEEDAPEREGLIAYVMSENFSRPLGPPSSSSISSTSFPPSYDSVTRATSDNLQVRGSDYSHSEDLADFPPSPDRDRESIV

SMILES | Nav1.1 current amplification rate (%) (human Nav1.1; [1]) | Nav1.5 current amplification rate (%) (human Nav1.5; [2]) | also measured
CC1CC=C(c2ccc(=O)n(CC(=O)N3CC=C(c4cccnc4)CC3)n2)CC1 (stereo not drawn) [Example 402] | 323% | 21% | 
COc1cncc(C2=CCN(C(=O)Cn3nc(C4=CCC(C)CC4)ccc3=O)CC2)c1 (stereo not drawn) [Example 403] | 270% | 12% | 
CC1CC=C(c2ccc(=O)n(CC(=O)N3CC=C(c4nccc5occc45)CC3)n2)CC1 (stereo not drawn) [Example 404] | 42% | 6% | 
CC1CC=C(c2ccc(=O)n(CC(=O)N3CCN(c4cncc(OC(F)F)c4)CC3)n2)CC1 (stereo not drawn) [Example 405] |  |  | Nav1.1 current amplification rate (%) (human Nav1.1; [3]): 268%; Nav1.5 current amplification rate (%) (human Nav1.5; [4]): 14%
COc1ccc(N2CCN(C(=O)Cn3nc(C4=CCC(C)CC4)ccc3=O)CC2)cn1 (stereo not drawn) [Example 407] |  |  | Nav1.1 current amplification rate (%) (human Nav1.1; [3]): 113%; Nav1.5 current amplification rate (%) (human Nav1.5; [4]): 6%
COc1ncc(N2CCN(C(=O)Cn3nc(C4=CCC(C)CC4)ccc3=O)CC2)cc1F (stereo not drawn) [Example 409] |  |  | Nav1.1 current amplification rate (%) (human Nav1.1; [3]): 244%; Nav1.5 current amplification rate (%) (human Nav1.5; [4]): 11%
Cc1ncccc1N1CCN(C(=O)Cn2nc(C3=CCC(C)CC3)ccc2=O)CC1 (stereo not drawn) [Example 410] |  |  | Nav1.1 current amplification rate (%) (human Nav1.1; [3]): 66%; Nav1.5 current amplification rate (%) (human Nav1.5; [4]): 10%
COc1cc(N2CCN(C(=O)Cn3nc(C4=CCC(C)CC4)ccc3=O)CC2)ccc1F (stereo not drawn) [Example 413] |  |  | Nav1.1 current amplification rate (%) (human Nav1.1; [3]): 27%; Nav1.5 current amplification rate (%) (human Nav1.5; [4]): 1%
CC1CC=C(c2ccc(=O)n(CC(=O)N3CCN(c4nccs4)CC3)n2)CC1 (stereo not drawn) [Example 414] | 40% | −2% | 
CC1CC=C(c2ccc(=O)n(CC(=O)N3CCN(c4cnn(C)c4)CC3)n2)CC1 (stereo not drawn) [Example 415] | 93% | 2% | 
CC1CC=C(c2ccc(=O)n(CC(=O)N3CC(C)N(c4cccnc4)C(C)C3)n2)CC1 (stereo not drawn) [Example 416] | 383% | 86% | 
CC1CC=C(c2ccc(=O)n(CC(=O)N3C[C@H](C)N(c4cccnc4)C[C@H]3C)n2)CC1 (stereo partly drawn) [Example 417] |  |  | Nav1.1 current amplification rate (%) (human Nav1.1; [3]): 23%; Nav1.5 current amplification rate (%) (human Nav1.5; [4]): 1%
COc1cnc(C)c(N2CCN(C(=O)Cn3nc(C4=CCC(C)CC4)ccc3=O)CC2)c1 (stereo not drawn) [Example 418] |  |  | Nav1.1 current amplification rate (%) (human Nav1.1; [3]): 105%; Nav1.5 current amplification rate (%) (human Nav1.5; [4]): 7%
CC1CC=C(c2ccc(=O)n(CC(=O)Nc3ccn4cc(C(F)(F)F)nc4c3)n2)CC1 (stereo not drawn) [Example 421] | 199% | 34% | 
Cc1nc2cc(NC(=O)Cn3nc(C4=CCC(C)CC4)ccc3=O)ccc2o1 (stereo not drawn) [Example 422] | 287% | 28% | 
Cc1noc2ccc(NC(=O)Cn3nc(C4=CCC(C)CC4)ccc3=O)cc12 (stereo not drawn) [Example 423] | 11% | 4% | 
CC1CC=C(c2ccc(=O)n(CC(=O)N3CC4(C3)CN(c3cccnc3)C4)n2)CC1 (stereo not drawn) [Example 424] | 40% | 2% | 
CC1(C)CC=C(c2ccc(=O)n(CC(=O)Nc3ccn4ccnc4c3)n2)CC1 [Example 425] | 283% | 60% | 
CC1(C)CC=C(c2ccc(=O)n(CC(=O)Nc3ccc4c(c3)OCC4)n2)CC1 [Example 426] | 244% | 20% | 
CC1(C)CC=C(c2ccc(=O)n(CC(=O)Nc3ccn4nccc4c3)n2)CC1 [Example 427] | 172% | 63% | 
CC1(C)CC=C(c2ccc(=O)n(CC(=O)Nc3ccc4ncnn4c3)n2)CC1 [Example 428, 2-[3-(4,4-dimethylcyclohex-1-en-1-yl)-6-oxopyridazin-1(6H)-yl]-N-([1,2,4]triazolo[1,5-a]pyridin-6-yl)acetamide] |  |  | activation at 1 µM (human Nav1.1; [5]): 109%; activation at 1 µM (human Nav1.5; [6]): 23%
CC1(C)CC=C(c2ccc(=O)n(CC(=O)Nc3ccn4ncnc4c3)n2)CC1 [Example 429, 2-[3-(4,4-dimethylcyclohex-1-en-1-yl)-6-oxopyridazin-1(6H)-yl]-N-([1,2,4]triazolo[1,5-a]pyridin-7-yl)acetamide] |  |  | activation at 1 µM (human Nav1.1; [5]): 101%; activation at 1 µM (human Nav1.5; [6]): 28%
COc1ccc2c(c1)CCN2C(=O)Cn1nc(C2=CCC(C)(C)CC2)ccc1=O [Example 430] | 28% | 22% | 
COc1cccc2c1CCN2C(=O)Cn1nc(C2=CCC(C)(C)CC2)ccc1=O [Example 431] | 11% | 3% | 

SMILES | Nav1.1 current amplification rate (%) (human Nav1.1; [1]) | Nav1.5 current amplification rate (%) (human Nav1.5; [2]) | also measured
CC1(C)CC=C(c2ccc(=O)n(CC(=O)N3CCc4c(N5CCOCC5)cccc43)n2)CC1 [Example 432] |  |  | Nav1.1 current amplification rate (%) (human Nav1.1; compound 1 μmol/L, HEK293 stably expressing human Nav1.1): 280%; Nav1.5 current amplification rate (%) (human Nav1.5; compound 1 μmol/L, CHO-K1 stably expressing human Nav1.5): 16%
CN1CCN(c2cccc3c2CCN3C(=O)Cn2nc(C3=CCC(C)(C)CC3)ccc2=O)CC1 [Example 433] | 192% | 10% | 
COC1CN(c2cccc3c2CCN3C(=O)Cn2nc(C3=CCC(C)(C)CC3)ccc2=O)C1 [Example 434] | 232% | 142% | 
COCOc1cccc2c1CCN2C(=O)Cn1nc(C2=CCC(C)(C)CC2)ccc1=O [Example 435] | 262% | 14% | 
CC1(C)CC=C(c2ccc(=O)n(CC(=O)N3CCc4c(OC5COC5)cccc43)n2)CC1 [Example 436] | 226% | 31% | 
CC1(C)CC=C(c2ccc(=O)n(CC(=O)N3CCc4c(C5CN(C(=O)CO)C5)cccc43)n2)CC1 [Example 437] |  |  | Nav1.1 current amplification rate (%) (human Nav1.1; [3]): 582%; Nav1.5 current amplification rate (%) (human Nav1.5; [4]): 194%
CC1(C)CC=C(c2ccc(=O)n(CC(=O)N3CCc4c(C5CN(C6COC6)C5)cccc43)n2)CC1 [Example 438] |  |  | Nav1.1 current amplification rate (%) (human Nav1.1; [3]): 404%; Nav1.5 current amplification rate (%) (human Nav1.5; [4]): 25%
CC1(C)CC=C(c2ccc(=O)n(CC(=O)N3CCN(c4ccccn4)CC3)n2)CC1 [Example 439] | 87% | −4% | 
CC1(C)CC=C(c2ccc(=O)n(CC(=O)N3CCN(c4cccnc4)CC3)n2)CC1 [Example 440] | 196% | 7% | 
CC1(C)CC=C(c2ccc(=O)n(CC(=O)N3CCC4(CCOCC4)CC3)n2)CC1 [Example 441] | 30% | 1% | 
Cc1cncc(N2CCN(C(=O)Cn3nc(C4=CCC(C)(C)CC4)ccc3=O)CC2)c1 [Example 442] | 414% | 27% | 
Cc1ccc(N2CCN(C(=O)Cn3nc(C4=CCC(C)(C)CC4)ccc3=O)CC2)cn1 [Example 443] | 114% | 1% | 
CC1(C)CC=C(c2ccc(=O)n(CC(=O)N3CCN(c4cncc(F)c4)CC3)n2)CC1 [Example 444] | 292% | 10% | 
CC1(C)CC=C(c2ccc(=O)n(CC(=O)Nc3ccc4ocnc4c3)n2)CC1 [Example 445, N-(1,3-benzooxazol-5-yl)-2-[3-(4,4-dimethylcyclohex-1-en-1-yl)-6-oxopyridazin-1(6H)-yl]acetamide] |  |  | activation at 10 µM (human Nav1.1; 10 μmol/L compound, change of the area under the curve of Nav1.1 current (Test Result 1), read-out: Nav1.1 current amplification rate (%)): 320%; activation at 10 µM (human Nav1.5; 10 μmol/L compound, change of the area under the curve of Nav1.5 current (Test Result 1), read-out: Nav1.5 current amplification rate (%)): 52%
O=C(Cn1nc(C2=CCC(C(F)(F)F)CC2)ccc1=O)Nc1ccc2ocnc2c1 (stereo not drawn) [Example 446] | 333% | 10% | 
COc1cc(C2=CCC(C(F)(F)F)CC2)nn(CC(=O)Nc2ccc3ocnc3c2)c1=O (stereo not drawn) [Example 447] | 148% | 6% | 
COc1cc(C2=CCC(C)CC2)nn(CC(=O)Nc2ccc3ocnc3c2)c1=O (stereo not drawn) [Example 449] | 250% | 12% | 
COc1cc(=O)n(CC(=O)Nc2ccc3ocnc3c2)nc1C1=CCC(C(F)(F)F)CC1 (stereo not drawn) [Example 450] | 187% | 5% | 
COc1cc(=O)n(CC(=O)Nc2ccc3ocnc3c2)nc1C1=CCC(C)(C)CC1 [Example 451] | 365% | 30% | 
Cc1ccc(-c2ccc(=O)n(CC(=O)Nc3ccc4ocnc4c3)n2)cn1 [Example 452] | 10% | 2% | 
O=C(Cn1nc(-c2ccc(C(F)(F)F)nc2)ccc1=O)Nc1ccc2ocnc2c1 [Example 453] | 15% | 1% | 
O=C(Cn1nc(-c2cc(Cl)cs2)ccc1=O)Nc1ccc2ocnc2c1 [Example 454] | 157% | 35% | 
Cc1ccc(-c2ccc(=O)n(CC(=O)Nc3ccc4ocnc4c3)n2)s1 [Example 455] | 131% | 21% | 
COc1cc(C2=CCC(C)(C)CC2)nn(CC(=O)Nc2ccn3ccnc3c2)c1=O [Example 456] | 224% | 29% | 
